{
  "source": "patent US20020018806A1",
  "about": "“Lipopeptide adjuvants” (priority 2000, published 2002)",
  "system": "peripheral blood mononuclear cells",
  "experiment": "T-cell promiscuity in unimmunized humans: PBMC proliferation with lipopeptide (3H-thymidine incorporation)",
  "assay_type": "cell-based, human",
  "conditions": "PBMC 3×10^5/well, 5-6 days with lipopeptide, responder = ≧2 S.I. (cpm with antigen/cpm media only)",
  "data": [
    {"substance": "Tetanus toxoid", "values": [
      {"measurement": "Responder/Total", "result": "10/21"}
    ]}
  ]
}
